Laboratory results as given in PubChem BioAssay AID179 (DTP/NCI, 2004).
Activity calls are given as the source filed them.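 How the source made its calls: active means compounds giving half or more protection of infected cells from virus-caused growth loss, again on retest; inactive means the rest.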

System: CEM cells HIV-1 protection, formazan growth assay
Test: NCI AIDS Antiviral Assay
Details: for IC50: measured here: growth of uninfected CEM cells
How it was run: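 Human CEM cells, uninfected and HIV-1-infected, exposed to five drug concentrations; growth measured by soluble formazan assay and scored as percent protection from infection, with protecting compounds retested.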

`C[C@@]1(O)CC[C@]2(C)C3CCCC3[C@H]12` (some centres not stated) was tested, and the outcome was “inactive”.
In the case of `COc1ccccc1CNCc1nc2ccccc2[nH]1`, the EC50 is reported as > 200 µM and the IC50 is reported as 155 µM.
For `O=S(=O)(O)c1ccc(O)c(N=Nc2ccc(S(=O)(=O)c3ccc(N=Nc4cc(S(=O)(=O)O)ccc4O)cc3)cc2)c1`, the EC50 was > 100 µM and the IC50 was > 100 µM.
With `CNC(=O)O/N=C(\C(=N\OC(=O)NC)c1ccccc1)c1ccccc1` the outcome was “inactive”.
`COc1cccc2c1C1(O)C2CCCC12OCCCO2` (configuration not stated) was tested, and the EC50 was > 200 µM and the IC50 was > 200 µM.
For `COc1ccc2c(c1)-c1c(c3cc(OC)ccc3n1CCCN(C)C)CC2`, the EC50 was > 200 µM and the IC50 was 5.5 µM.
With `CCN1CC2(OC(=O)c3ccccc3NC(C)=O)CCC(OC)C34C1C(CC23)C1(O)CC(OC)C2CC4C1(O)C2OC` (configuration not stated) the outcome was “inactive”.
For `N#CC(c1ccccc1)N(CCOCCOCCN(C(=O)c1cccc2ccccc12)C(C#N)c1ccccc1)C(=O)c1cccc2ccccc12` (configuration not stated), the EC50 was > 200 µM and the IC50 was 13.2 µM.
`CC1OC(n2cc(F)c(=O)[nH]c2=O)C=CC1O` (configuration not stated) was tested, and the EC50 was > 1020 µM and the IC50 was 407 µM.
In the case of `N#C/C(=C\c1ccc(C#N)cc1)C(=O)O`, the EC50 is reported as > 36.3 µM and the IC50 is reported as > 36.3 µM.
With `CC(C(=O)O)C(C)(C)C(=O)O` (configuration not stated) the EC50 was > 200 µM and the IC50 was > 200 µM.
In the case of `C=C1C(=O)OC2C3C(=C)[C@@H](OC(C)=O)CC3C(C)=CC(OC(=O)C(C)(OC(C)=O)C(C)OC(C)=O)[C@@H]12` (some centres not stated), the EC50 is reported as > 200 µM and the IC50 is reported as 10.2 µM.
In the case of `C/C=C/C#CC#CC(O)C(O)/C=C/CCCO` (configuration not stated), the EC50 is reported as > 77.6 µM and the IC50 is reported as > 77.6 µM.
For `Cn1c(=O)oc2nc(-c3ccccc3)cc(C(F)(F)F)c21`, the EC50 was > 200 µM and the IC50 was 19.1 µM.
With `CC(=O)[O-].O=S(=O)(Nc1ncccn1)c1ccc(N=Cc2ccccc2O)cc1.O=S(=O)(Nc1ncccn1)c1ccc(N=Cc2ccccc2O)cc1.[Cu+2]` the EC50 was > 200 µM and the IC50 was 38 µM.
With `COC(=O)C1=CC(O)CCC1c1ccc(OC)cc1` (configuration not stated) the EC50 was > 363 µM and the IC50 was > 363 µM.
For `COc1ccc(/C=N/n2c(=O)[nH]c3ccccc3c2=O)cc1`, the EC50 was > 200 µM and the IC50 was > 200 µM.
In the case of `C(=C\c1ccc(-c2cn3cc(/C=C/C=N/NC4=NCCN4)ccc3n2)cc1)/C=N/NC1=NCCN1`, the outcome is reported as “inactive”.
In the case of `CCOC(=O)C(=Cc1ccc(Oc2ccccc2)cc1)C(=O)OCC`, the EC50 is reported as > 11.2 µM and the IC50 is reported as > 11.2 µM.
In the case of `N#CC(C#N)=Cc1ccc(Oc2ccccc2)cc1`, the EC50 is reported as > 21.4 µM and the IC50 is reported as 16.6 µM.
In the case of `Nc1ccc(N=Nc2ccccc2)c(N)n1`, the EC50 is reported as > 200 µM and the IC50 is reported as 32.4 µM.
`O=C(c1ccccc1)N1OCCCc2ccccc21` was tested, and the EC50 was > 200 µM and the IC50 was 195 µM.
With `COC(OC)(c1ccccc1)C(Br)Br` the outcome was “inactive”.
For `N/C(CCSCCSCC/C(N)=N\O)=N\O`, the EC50 was > 200 µM and the IC50 was > 200 µM.
With `COc1ccc(/C=C/C(=O)c2cc(C)ccc2OC(C)=O)cc1` the EC50 was > 23.4 µM and the IC50 was 15.8 µM.
For `NC(Cc1ccc(B(O)O)cc1)C(=O)NC(CO)CO` (configuration not stated), the EC50 was > 200 µM and the IC50 was > 200 µM.
For `Cc1ccc(C)n1-c1ccccc1C1C=CN(C(=O)OC(C)(C)C)C=C1`, the EC50 was > 200 µM and the IC50 was 30.2 µM.
In the case of `CCP(=S)(CC)CCl`, the EC50 is reported as > 200 µM and the IC50 is reported as > 200 µM.
`O=C(/C=C/C(=O)c1cccs1)c1cccs1` was tested, and the EC50 was > 20 µM and the IC50 was 1.1 µM.
`Cc1cccc(C)c1C1(Cl)C(=O)c2ccccc2C1=O` was tested, and the EC50 was > 200 µM and the IC50 was 13.5 µM.
With `Cc1ccc(Cc2n[nH]c(=O)n2-c2ccccc2)cc1` the outcome was “inactive”.
`N#CC1(OC2CCCCO2)Cc2ccccc2C1` (configuration not stated) was tested, and the EC50 was > 200 µM and the IC50 was > 200 µM.
`Cc1cnc2c(ccc3c(C)c(C)cnc32)c1C.Cc1cnc2c(ccc3c(C)c(C)cnc32)c1C.O=C1OC(C(O)C[O-])C(O)=C1O.[Cu+]` was tested, and the EC50 was > 25.1 µM and the IC50 was 0.912 µM.
With `CCN(CC)CCOC(=O)/C=C/c1ccccc1` the outcome was “inactive”.
For `O=c1c2ccccc2[nH]c2c(Cl)cc(Cl)c(NC3CCCCC3)c12`, the EC50 was > 200 µM and the IC50 was 28.2 µM.
For `CC(C)(C)c1ccc(-n2c3nc(=O)n(-c4ccccc4C(F)(F)F)c(=O)c-3cc3ccccc32)cc1`, the EC50 was > 200 µM and the IC50 was 15.8 µM.
For `CCc1cc2c(oc3cc4ccccc4cc32)c(=O)[nH]1`, the EC50 was > 200 µM and the IC50 was > 200 µM.
